Here are results for 15 compounds from ChEMBL document CHEMBL1933046, “Synthesis and antibacterial activity of a novel series of acylides active against community acquired respiratory pathogens” (2012).

In brackets after ≈: the same amount, converted by molar mass.

Format in all cases: functional
The test system of test [1] is Streptococcus pneumoniae. The experiment in a line: Antibacterial activity against Streptococcus pneumoniae 3579 expressing erm gene by NCCLS method.
Test [2] has as its system Streptococcus pneumoniae. The experiment in a line: Antibacterial activity against Streptococcus pneumoniae 994 expressing mef gene by NCCLS method.
Test [3] concerns Moraxella catarrhalis. The experiment in a line: Antibacterial activity against Moraxella catarrhalis 8176 by NCCLS method.
Test [4] deals with Streptococcus pneumoniae. Kind of test: Antibacterial activity against Streptococcus pneumoniae 49619 by NCCLS method.
Test [5] concerns Streptococcus pneumoniae. The experiment in a line: Antibacterial activity against Streptococcus pneumoniae 6303 by NCCLS method.
The test system of test [6] is Streptococcus pyogenes. The experiment in a line: Antibacterial activity against Streptococcus pyogenes 19615 by NCCLS method.
Test [7] relates to Haemophilus influenzae. Kind of test: Antibacterial activity against Haemophilus influenzae 38 by NCCLS method.
Test [8] deals with Streptococcus pneumoniae. Kind of test: Antibacterial activity against Streptococcus pneumoniae by NCCLS method.

As to `CC[C@H]1OC(=O)[C@H](C)[C@@H](OC(=O)Cc2ccccn2)[C@H](C)[C@@H](O[C@@H]2O[C@H](C)C[C@H](N(C)CC)[C@H]2O)[C@](C)(OC)C[C@@H](C)C(=O)[C@H](C)[C@H]2N(CCCCn3cnc(-c4cccnc4)c3)C(=O)O[C@]12C`, the MIC in test [1] was 1 µg/mL (≈ 1.06 µM); in test [2] it was 0.06 µg/mL (≈ 0.0633 µM); in test [3], 0.25 µg/mL (≈ 0.264 µM); in test [4], 0.015 µg/mL (≈ 0.0158 µM); in test [5], 0.06 µg/mL (≈ 0.0633 µM); in test [6], 0.06 µg/mL (≈ 0.0633 µM). In test [7], the MIC was 1 µg/mL (≈ 1.06 µM).
`C=CCN(C)[C@H]1C[C@@H](C)O[C@@H](O[C@@H]2[C@@H](C)[C@H](OC(=O)Cc3cccnc3)[C@@H](C)C(=O)O[C@H](CC)[C@@]3(C)OC(=O)N(CCCCn4cnc(-c5ccc(N)nc5)c4)[C@@H]3[C@@H](C)C(=O)[C@H](C)C[C@@]2(C)OC)[C@@H]1O`: the MIC was 0.125 µg/mL (≈ 0.128 µM) in test [1]; 0.06 µg/mL (≈ 0.0616 µM) in test [2]; 0.125 µg/mL (≈ 0.128 µM) in test [3]; 0.125 µg/mL (≈ 0.128 µM) in test [4]; 0.06 µg/mL (≈ 0.0616 µM) in test [5]; 0.06 µg/mL (≈ 0.0616 µM) in test [6]. In test [7], the MIC amounted to 0.125 µg/mL (≈ 0.128 µM).
As for `CC[C@H]1OC(=O)[C@H](C)[C@@H](OC(=O)Cc2ccccn2)[C@H](C)[C@@H](O[C@@H]2O[C@H](C)C[C@H](N(C)CC)[C@H]2O)[C@](C)(OC)C[C@@H](C)C(=O)[C@H](C)[C@H]2N(CCCCn3cnc4ncccc43)C(=O)O[C@]12C`, the MIC in test [1] amounted to 0.25 µg/mL (≈ 0.271 µM); in test [2], 0.25 µg/mL (≈ 0.271 µM); in test [3], 0.125 µg/mL (≈ 0.136 µM); in test [4], 0.015 µg/mL (≈ 0.0163 µM); in test [5], 0.06 µg/mL (≈ 0.0651 µM); in test [6], 0.03 µg/mL (≈ 0.0326 µM). The compound also yielded an MIC in test [7] of 0.06 µg/mL (≈ 0.0651 µM).
Turning to `C=CCN(C)[C@H]1C[C@@H](C)O[C@@H](O[C@@H]2[C@@H](C)[C@H](OC(=O)Cc3ccccn3)[C@@H](C)C(=O)O[C@H](CC)[C@@]3(C)OC(=O)N(CCCCn4cnc(-c5cccnc5)c4)[C@@H]3[C@@H](C)C(=O)[C@H](C)C[C@@]2(C)OC)[C@@H]1O`, the MIC in test [1] stood at 0.25 µg/mL (≈ 0.261 µM); in test [2], 0.125 µg/mL (≈ 0.13 µM); in test [3], 0.125 µg/mL (≈ 0.13 µM); in test [4], 0.008 µg/mL (≈ 0.00834 µM); in test [5], 0.015 µg/mL (≈ 0.0156 µM); in test [6] it was 0.008 µg/mL (≈ 0.00834 µM). The compound also had an MIC in test [7] of 0.125 µg/mL (≈ 0.13 µM).
As for `CC[C@H]1OC(=O)[C@H](C)[C@@H](O[C@H]2C[C@@](C)(OC)[C@@H](O)[C@H](C)O2)[C@H](C)[C@@H](O[C@@H]2O[C@H](C)C[C@H](N(C)C)[C@H]2O)[C@](C)(O)C[C@@H](C)CN(C)[C@H](C)[C@@H](O)[C@]1(C)O` [AZITHROMYCIN], the MIC in test [1] worked out at 16 µg/mL (≈ 21.4 µM); in test [2], 1 µg/mL (≈ 1.34 µM); in test [3], 16 µg/mL (≈ 21.4 µM); in test [4], 0.25 µg/mL (≈ 0.334 µM); in test [5], 0.25 µg/mL (≈ 0.334 µM); in test [6], 0.25 µg/mL (≈ 0.334 µM). In test [7], the MIC is > 16 µg/mL.
On to `C=CCN(C)[C@H]1C[C@@H](C)O[C@@H](O[C@@H]2[C@@H](C)[C@H](OC(=O)Cc3ccccn3)[C@@H](C)C(=O)O[C@H](CC)[C@@]3(C)OC(=O)N(CCCCn4cnc5ccncc54)[C@@H]3[C@@H](C)C(=O)[C@H](C)C[C@@]2(C)OC)[C@@H]1O`, for which the MIC in test [1] came to 0.25 µg/mL (≈ 0.268 µM); in test [2], 0.125 µg/mL (≈ 0.134 µM); in test [3] it was 0.06 µg/mL (≈ 0.0643 µM); in test [4], 0.125 µg/mL (≈ 0.134 µM); in test [5], 0.125 µg/mL (≈ 0.134 µM); in test [6] it was 0.125 µg/mL (≈ 0.134 µM). This compound also came in with an MIC in test [7] of 0.06 µg/mL (≈ 0.0643 µM).
Consider `C=CCN(C)[C@H]1C[C@@H](C)O[C@@H](O[C@@H]2[C@@H](C)[C@H](OC(=O)Cc3ccccn3)[C@@H](C)C(=O)O[C@H](CC)[C@@]3(C)OC(=O)N(CCCCn4cnc5cncnc54)[C@@H]3[C@@H](C)C(=O)[C@H](C)C[C@@]2(C)OC)[C@@H]1O`, for which the MIC in test [1] was found to be 0.25 µg/mL (≈ 0.268 µM); in test [2], 0.125 µg/mL (≈ 0.134 µM); in test [3], 0.125 µg/mL (≈ 0.134 µM); in test [4], 0.06 µg/mL (≈ 0.0642 µM); in test [5], 0.06 µg/mL (≈ 0.0642 µM); in test [6], 0.06 µg/mL (≈ 0.0642 µM). For the same compound, the MIC in test [7] was < 0.06 µg/mL.
Consider `C=CCN(C)[C@H]1C[C@@H](C)O[C@@H](O[C@@H]2[C@@H](C)[C@H](OC(=O)Cc3ccccn3)[C@@H](C)C(=O)O[C@H](CC)[C@@]3(C)OC(=O)N(CCCCn4cnc(-c5cnc(N)nc5)c4)[C@@H]3[C@@H](C)C(=O)[C@H](C)C[C@@]2(C)OC)[C@@H]1O`, for which the MIC in test [1] stood at 0.125 µg/mL (≈ 0.128 µM); in test [2], 0.06 µg/mL (≈ 0.0615 µM); in test [3], 0.125 µg/mL (≈ 0.128 µM); in test [4], 0.03 µg/mL (≈ 0.0308 µM); in test [5], 0.03 µg/mL (≈ 0.0308 µM); in test [6], 2 µg/mL (≈ 2.05 µM).
In the case of `CC[C@H]1OC(=O)[C@H](C)[C@@H](OC(=O)Cc2cccnc2)[C@H](C)[C@@H](O[C@@H]2O[C@H](C)C[C@H](N(C)CC)[C@H]2O)[C@](C)(OC)C[C@@H](C)C(=O)[C@H](C)[C@H]2N(CCCCn3cnc(-c4ccc(N)nc4)c3)C(=O)O[C@]12C`, the MIC in test [1] was 0.25 µg/mL (≈ 0.26 µM); in test [2] it was 0.125 µg/mL (≈ 0.13 µM); in test [3] it was 0.125 µg/mL (≈ 0.13 µM); in test [4], 0.06 µg/mL (≈ 0.0624 µM); in test [5], 0.06 µg/mL (≈ 0.0624 µM); in test [6], 0.03 µg/mL (≈ 0.0312 µM). The MIC in test [7] is 0.125 µg/mL (≈ 0.13 µM).
For `C=CCN(C)[C@H]1C[C@@H](C)O[C@@H](O[C@@H]2[C@@H](C)[C@H](OC(=O)Cc3ccccn3)[C@@H](C)C(=O)O[C@H](CC)[C@@]3(C)OC(=O)N(CCCCn4cnc5c(N)ncnc54)[C@@H]3[C@@H](C)C(=O)[C@H](C)C[C@@]2(C)OC)[C@@H]1O`, the MIC worked out at 0.5 µg/mL (≈ 0.527 µM) in test [1]; 0.125 µg/mL (≈ 0.132 µM) in test [2]; 0.125 µg/mL (≈ 0.132 µM) in test [3]; 0.06 µg/mL (≈ 0.0632 µM) in test [4]; 0.125 µg/mL (≈ 0.132 µM) in test [5]; 0.03 µg/mL (≈ 0.0316 µM) in test [6]. In addition, in test [7], the MIC was 0.125 µg/mL (≈ 0.132 µM).
Consider `CC[C@H]1OC(=O)[C@H](C)[C@@H](OC(=O)Cc2cccnc2)[C@H](C)[C@@H](O[C@@H]2O[C@H](C)C[C@H](N(C)CC)[C@H]2O)[C@](C)(OC)C[C@@H](C)C(=O)[C@H](C)[C@H]2N(CCCCn3cnc(-c4cccnc4)c3)C(=O)O[C@]12C`, for which the MIC stood at 2 µg/mL (≈ 2.11 µM) in test [1]; 0.125 µg/mL (≈ 0.132 µM) in test [2]; 0.125 µg/mL (≈ 0.132 µM) in test [3]; 0.03 µg/mL (≈ 0.0317 µM) in test [4]; 0.06 µg/mL (≈ 0.0633 µM) in test [5]; 0.03 µg/mL (≈ 0.0317 µM) in test [6]. The same compound displayed an MIC in test [7] of 1 µg/mL (≈ 1.06 µM).
Take `C=CCN(C)[C@H]1C[C@@H](C)O[C@@H](O[C@@H]2[C@@H](C)[C@H](OC(=O)Cc3ccccn3)[C@@H](C)C(=O)O[C@H](CC)[C@@]3(C)OC(=O)N[C@@H]3[C@@H](C)C(=O)[C@H](C)C[C@@]2(C)OC)[C@@H]1O`: the MIC came to 8 µg/mL (≈ 10.5 µM) in test [1]; 0.125 µg/mL (≈ 0.164 µM) in test [2]; 1 µg/mL (≈ 1.32 µM) in test [3]; 0.015 µg/mL (≈ 0.0197 µM) in test [4]; 0.125 µg/mL (≈ 0.164 µM) in test [5]; 0.015 µg/mL (≈ 0.0197 µM) in test [6].
In turn, `CC[C@H]1OC(=O)[C@H](C)[C@@H](OC(=O)Cc2ccccc2F)[C@H](C)[C@@H](O[C@@H]2O[C@H](C)C[C@H](N(C)C3CC3)[C@H]2O)[C@](C)(OC)C[C@@H](C)C(=O)[C@H](C)[C@@H](O)[C@]1(C)O` returned an MIC in test [8] of 16 µg/mL (≈ 21.3 µM).
On to `C=CCN(C)[C@H]1C[C@@H](C)O[C@@H](O[C@@H]2[C@@H](C)[C@H](OC(=O)Cc3cccc([N+](=O)[O-])c3)[C@@H](C)C(=O)O[C@H](CC)[C@@](C)(O)[C@H](O)[C@@H](C)C(=O)[C@H](C)C[C@@]2(C)OC)[C@@H]1O`, for which, in test [8], the MIC amounted to 0.06 µg/mL (≈ 0.077 µM).
Turning to `C=CCN(C)[C@H]1C[C@@H](C)O[C@@H](O[C@@H]2[C@@H](C)[C@H](OC(=O)Cc3ccccn3)[C@@H](C)C(=O)O[C@H](CC)[C@@](C)(O)[C@H](O)[C@@H](C)C(=O)[C@H](C)C[C@@]2(C)OC)[C@@H]1O`, in test [8], the MIC worked out at 0.25 µg/mL (≈ 0.34 µM).
